From PMC6127092, “Polymeric nanocapsules embedded with ultra-small silver nanoclusters for synergistic pharmacology and improved oral delivery of Docetaxel” (Scientific Reports, 2018)

Assays:
[1] = In vitro DTX release and release model fitting; assay type: physicochemical
Description: Error bar represents Mean ± S.D. of three experiments.
To further probe into the release mechanism, different mathematical models were applied to the dissolution data.

[2] = Biocompatibility, trypan blue assay; assay type: cell-based; details: fresh human macrophages isolated from blood
Protocol: The biocompatibility of the NCs and DTX-Ag-NCPs was assessed against the fresh human macrophages. The macrophages were isolated from fresh human blood using Ficoll-Gastrografin gradient method.^6 Macrophages were suspended in RPMI media and incubated in CO2 incubator.

[3] = Oral bioavailability and pharmacokinetics; assay type: in vivo, rabbits; details: rabbit
Protocol: All the animal studies were conducted in compliance to the approved protocol of Bio-Ethical Committee of Quaid-i-Azam University Islamabad, Pakistan (Protocol No. BEC-FBS-QAU-20). Oral bioavailability studies of NCs were conducted in rabbits. The rabbits were divided into 3 groups (n=5) and kept in the animal house with free access to food and water. […] The samples (10mg/kg) were orally administered through gavage needle. Blood samples were withdrawn from ear marginal vein of each rabbit at predefined time interval using 1 ml sterile syringe each time. The plasma was separated from blood samples and stored at -20 °C till further used for analysis.^7,8 The drug was extracted from plasma samples and was analyzed using HPLC method described earlier.

Swiss albino mice [4] = details: mouse, in vivo
Protocol: After 14 days, the complete blood count (CBC) was performed on blood and plasma was carefully collected and LFTs, RFTs, glucose, total protein and cholesterol were analyzed.

Swiss albino mice [5] = details: mouse, in vivo, po, 10 mg/kg
Protocol: (§1) Female Swiss albino mice weighing 32 ± 5 g, were divided into 4 groups (n = 5) and were kept to free access of food and water at controlled environment. […] The dose (10 mg/kg) was administered orally through gavage. […] After 14 days, the blood was withdrawn for serum biochemistry analysis and mice were sacrificed for tissue histology studies[49].

[6] = rabbit, in vivo, cited from earlier work
[7] = test system: breast cancer (MDA-MB-231) cell line; assay: Cytotoxic synergism study, MTT assay; details: MDA-MB-231, MTT, 24 h
Protocol: The cells were seeded in 96-well plate having 6000 cells/well in fetal bovine serum supplemented Dulbecco’s Modified Eagles Medium (DMEM/FBS) solution. […] Untreated cells with 100% viability were taken as control and the cells without addition of MTT were used as blank to calibrate the instrument. IC50 values for each formulation was calculated using Graphpad Prism 6.02 software[19].

Swiss albino mice [8] = assay: Acute oral toxicity (OECD 425), observation; details: 10 mg/kg, 14 days
Protocol: as §1

[9] = model fitted to dissolution data

With `CC(=O)O[C@@]12CO[C@@H]1C[C@H](O)[C@@]1(C)C(=O)[C@H](O)C3=C(C)[C@@H](OC(=O)[C@H](O)[C@@H](NC(=O)OC(C)(C)C)c4ccccc4)C[C@@](O)([C@@H](OC(=O)c4ccccc4)[C@H]21)C3(C)C` [DTX, Docetaxel] the “Cumulative DTX release” value ([1]; 24 h, phosphate buffer, 37 °C) was “about 53%”, the “Higuchi KH” value [1, 9] was 10.98 and the “Hixon-Crowell KHC” value [1, 9] was 0.01. The “Korsmeyer-Peppas N (release exponent)” value [1, 9] was 0.56, the “Zero Order Ko” value [1, 9] was 3.06 and the viability at 24 h, 50 µg/ml [2] was ~65%. For the same molecule, the Cmax ([3]; plasma, 10 mg/kg) was 41.8 ng/mL, the Tmax ([3]; plasma, 10 mg/kg) was 5 h and the AUC(0-t) ([3]; plasma, 10 mg/kg, read-out: AUC0–24) was 441 ng·h/mL. For the same molecule, the MRT inf ([3]; plasma, 10 mg/kg, read-out: MRT0-inf_obs) was 26.2 h, the AUMC0-inf_obs ([3]; 10 mg/kg) was 19100.51 ng/ml*h^2 and the Cl/F_obs ([3]; 10 mg/kg) was 0.014 (mg)/(ng/ml)/h. The t1/2 ([3]; 10 mg/kg, plasma) was 18.039 h, the “Time plasma level remained above minimum effective concentration / within therapeutic window” value ([3]; MEC 35 ng/mL) was 3 h and the half-life ([3]; plasma, po, 10 mg/kg) was 18 h. It also gave an F ([3]; relative to DTX control) of 1, a Hb (Swiss albino mice [4]) of 13.20 ± 6.37 and an MCH (Swiss albino mice [4]) of 15.54 ± 4.35. For the same molecule, the MCV (Swiss albino mice [4]) was 57.57 ± 5.52, the MPV (Swiss albino mice [4]) was 7.11 ± 4.91 and the PCV (Swiss albino mice [4]) was 54.37 ± 11.93. It also gave a Platelets (Swiss albino mice [4]) of 632 ± 87.57, an RBC (Swiss albino mice [4]) of 6.86 ± 4.91 and an RDW % (Swiss albino mice [4]) of 16.92 ± 6.63%. The “Serum glutamic pyruvic transaminase (SGPT)” value (Swiss albino mice [4]) was “highest level”, the WBC (Swiss albino mice [4]) was 12.45 ± 7.63 and the “Visible changes in skin, fur or behavioral pattern” value (Swiss albino mice [5]) was “no visible changes”. The Minimum toxic concentration ([6]; iv) was 2700 ng/mL, the Minimum effective concentration [6] was 35 ng/mL and the IC50 [7] was 14.32 µg/mL. The “Mortality and change in body weights” value (Swiss albino mice [8]) was “No mortality and significant change in body weights”.
